The target of data set [1] is T1, 20S proteasome extracted from rat liver, chymotryptic-like (CT-L) activity (Rattus norvegicus, UniProt P18421+P28075).
T1 construct: 20S proteasome extracted from rat liver; from tissue; host or cells: rat liver
Kind of data set: Proteasome inhibition, chymotryptic-like (CT-L) activity, fluorescent peptide Suc-leu-leu-Val-Tyr-AMC. In kind it is biochemical. Conditions: rat liver 20S proteasome, 37° C., 1 h. As for the experimental part:
(§1) The activities of the proteasome were assayed using fluorescent peptides: Suc-leu-leu-Val-Tyr-AMC (Suc represents succinyl, and AMC represents 7-amino-4-methylcoumarin, purchased from SIGMA) for determining chymotryptic-like (CT-L) activity; Z-Ala-Arg-Arg-AMC (Z represents benzyloxycarbonyl, purchased from Calbiochem) for determining trypsin-like (TL) activity; and Z-leu-leu-Glu-βNA (βNA represents β-naphtylamide, purchased from SIGMA) for determining peptidyl-glutamyl-peptide-hydrolyzing (PGPH) enzyme activity.
(§2) Method for the aforesaid activity assays is as follows: 1 μg of 20S proteasome extracted from rat liver was incubated with a 100 μL solution containing various concentrations of compounds, 50 μM fluorescent peptides and 20 mM Tris-HCl at 37° C. for 1 h, respectively. The fluorescence released from AMC and RNA reagents was measured by a spectrofluorimeter Fluostar OPTIMA and BMG Germany at excitation/emission wavelengths of 380/440 nm and 335/410 nm, respectively. 0.1% DMSO was used as a solvent control. Compared with the fluorescence of solvent control, an inhibition rate was calculated.

The target in data set [2] is T2, 20S proteasome extracted from rat liver, trypsin-like (TL) activity (Rattus norvegicus, UniProt P40112+Q9JHW0).
T2 construct: 20S proteasome extracted from rat liver; from tissue; host or cells: rat liver
Kind of data set: Proteasome inhibition, trypsin-like (TL) activity, fluorescent peptide Z-Ala-Arg-Arg-AMC. In kind it is biochemical. The note with it: rat liver 20S proteasome, 37° C., 1 h; read-out: T-L (IC50). How it is done: as §1
as §2, with “calculated. Said assays used anticancer drug bortezomib (leukemia drug), namely PS341 as compound for positive control.” for “calculated.”

The target in data set [3] is T3, 20S proteasome extracted from rat liver, peptidyl-glutamyl-peptide-hydrolyzing (PGPH) enzyme activity (Rattus norvegicus, UniProt P28073+Q9JHW0).
T3 construct: 20S proteasome extracted from rat liver; from tissue; host or cells: rat liver
Kind of data set: Proteasome inhibition, PGPH activity, fluorescent peptide Z-leu-leu-Glu-βNA. Conditions: rat liver 20S proteasome, 37° C., 1 h. It is filed as biochemical. How it is done: as §1
as §2, with “calculated. Said assays used anticancer drug bortezomib (leukemia drug), namely PS341 as compound for positive control.” for “calculated.”

Data set [4] concerns HL-60 human leukemia cell. Kind of data set: Preliminary anti-tumor screening in vitro, MTT method. It is filed as cell-based. Set-up: key to Test results: +++: inhibition rates at three doses are greater than 50%; ++: inhibition rates at two doses are greater than 50%; +: inhibition rate at one dose is greater than 50%. Conditions: HL-60, MTT; for Test results: number of doses with inhibition > 50%; for inhibition at 0.05 µM / inhibition at 0.5 µM / inhibition at 5 µM: Homo sapiens, read-out: Inhibition rate %. How it is done:
(§3) The test methods used in this test example is the routine method for anti-tumor activities test in pharmaceutical area, for example, referring to the following reference: (J. Immunol Method, 1983, 65, 55).
(§4) Test models: A: MTT method (HL-60 human leukemia); B: SRB method (BGC-823 human gastric cancer); C: SRB method (Bel-7402 human hepatocarcinoma); D: SRB method (KB human nasopharyngeal carcinoma).
(§5) The aforesaid tests were carried out with the compounds of Examples 1-26 in the present invention, test results are shown in Tables 2-5.

For data set [5], the system named is BGC-823 human gastric cancer cell. Kind of data set: Preliminary anti-tumor screening in vitro, SRB method. In kind it is cell-based. Set-up: key to Test results: +++: inhibition rates at three doses are greater than 50%; ++: inhibition rates at two doses are greater than 50%; +: inhibition rate at one dose is greater than 50%. The note with it: BGC-823, SRB; for Test results: number of doses with inhibition > 50%; for inhibition at 0.05 µM / inhibition at 0.5 µM / inhibition at 5 µM: Homo sapiens, read-out: Inhibition rate %. As for the experimental part:
as §3, §4, §5

Data set [6] concerns Bel-7402 human hepatocarcinoma cell. The description is as above. In kind it is cell-based. More on the design: key to Test results: +++: inhibition rates at three doses are greater than 50%; ++: inhibition rates at two doses are greater than 50%; +: inhibition rate at one dose is greater than 50%. The note with it: Bel-7402, SRB; for Test results: number of doses with inhibition > 50%; for inhibition at 0.05 µM / inhibition at 0.5 µM / inhibition at 5 µM: Homo sapiens, read-out: Inhibition rate %. As for the experimental part:
as §3, §4, §5

Data set [7] deals with KB human nasopharyngeal carcinoma cell. Described as above. More on the design: key to Test results: +++: inhibition rates at three doses are greater than 50%; ++: inhibition rates at two doses are greater than 50%; +: inhibition rate at one dose is greater than 50%. In kind it is cell-based. Conditions: for inhibition at 0.05 µM / inhibition at 0.5 µM / inhibition at 5 µM: Homo sapiens, read-out: Inhibition rate %; for Test results: number of doses with inhibition > 50%. How it is done:
as §3, §4, §5

Some results are limits rather than exact numbers.

In turn, `CC(C)C[C@H](NC(=O)[C@H](Cc1ccccc1)NC(=O)[C@H](Cc1ccc2ccccc2c1)NC(=O)c1cnccn1)B1OC2CC3C[C@@H](C3(C)C)[C@]2(C)O1` (stereo partly drawn) [Compound 5b, Pinanediol N-pyrazineformyl-L-naphthylalanyl-L-phenylalanyl-L-leucine Borate] gave a melting point of 98 to 100 °C. Further, half-maximal inhibition in data set [1] (IC50) required 0.22 ± 0.106 nM. Besides, the IC50 in data set [2] is greater than 20 nM. Moreover, in data set [3], the IC50 is greater than 20 nM. Moreover, in data set [4], the Test results is “++”, the inhibition at 0.05 µM worked out at 21.1%, the inhibition at 0.5 µM stood at 88.1% and the inhibition at 5 µM came out at 88.1%. In addition, in data set [5], the Test results was “+++”, the inhibition at 0.05 µM was found to be 68.6%, the inhibition at 0.5 µM came to 94.8% and the inhibition at 5 µM was 96.5%. Moreover, in data set [6], the Test results is “++”, the inhibition at 0.05 µM was 35.9%, the inhibition at 0.5 µM turned out to be 66.7% and the inhibition at 5 µM stood at 91%. Moreover, in data set [7], the inhibition at 0.05 µM was 40.4%, the inhibition at 0.5 µM was 95.1%, the inhibition at 5 µM worked out at 95.8% and the Test results is “++”.

Regarding `CC(C)C[C@H](NC(=O)[C@H](Cc1ccc(O)cc1)NC(=O)[C@H](Cc1ccccc1)NC(=O)c1cnccn1)B1OC2CC3C[C@@H](C3(C)C)[C@]2(C)O1` (stereo partly drawn) [Compound 5c, Pinanediol N-pyrazineformyl-L-phenylalanyl-L-tyrosyl-L-leucine Borate], the melting point lay in the range of 119 to 120 °C. This compound returned an IC50 in data set [1] of 0.335 ± 0.031 nM. The IC50 in data set [2] was greater than 20 nM. The IC50 in data set [3] stood at 5.39 ± 0.368 nM. In addition, in data set [4], the Test results was “+”, the inhibition at 0.05 µM was -10.5%, the inhibition at 0.5 µM is 1.94% and the inhibition at 5 µM was 99%. Also, in data set [5], the Test results is on record as “++”, the inhibition at 0.05 µM is 3.19%, the inhibition at 0.5 µM was 56% and the inhibition at 5 µM worked out at 96.1%. Also, in data set [6], the Test results is “+”, the inhibition at 0.05 µM came to 4.18%, the inhibition at 0.5 µM is 16.6% and the inhibition at 5 µM came to 91.1%. Moreover, in data set [7], the inhibition at 0.05 µM is 1.84%, the inhibition at 0.5 µM is 29.8%, the inhibition at 5 µM is 91.4% and the Test results is “+”.

Take `CC(C)C[C@H](NC(=O)[C@H](Cc1ccccc1)NC(=O)[C@H](Cc1ccc(O)cc1)NC(=O)c1cnccn1)B1OC2CC3C[C@@H](C3(C)C)[C@]2(C)O1` (stereo partly drawn) [Compound 5d, Pinanediol N-pyrazineformyl-L-tyrosyl-L-phenylalanyl-L-leucine Borate]: the melting point lay in the range of 90 to 92 °C. Moreover, in data set [1], half-maximal inhibition (IC50) required 0.295 ± 0.049 nM. In addition, the IC50 in data set [2] is greater than 20 nM. In data set [3], this compound returned an IC50 of 4.76 ± 1.31 nM. Further, in data set [4], the Test results is “+”, the inhibition at 0.05 µM was -11.8%, the inhibition at 0.5 µM was determined as 35.9% and the inhibition at 5 µM was 88.9%. For the same compound, in data set [5], the Test results is reported as “++”, the inhibition at 0.05 µM was 23.6%, the inhibition at 0.5 µM amounted to 93.6% and the inhibition at 5 µM was 97.8%. Further, in data set [6], the Test results is recorded as “++”, the inhibition at 0.05 µM is 5.52%, the inhibition at 0.5 µM was found to be 52% and the inhibition at 5 µM worked out at 93.1%. Also, in data set [7], the inhibition at 0.05 µM was determined as 0.83%, the inhibition at 0.5 µM stood at 73.2%, the inhibition at 5 µM is 94.8% and the Test results is on record as “++”.

In turn, `CC(C)C[C@H](NC(=O)[C@H](Cc1ccc2ccccc2c1)NC(=O)[C@H](CC(C)C)NC(=O)c1cnccn1)B1OC2CC3C[C@@H](C3(C)C)[C@]2(C)O1` (stereo partly drawn) [Compound 5f, Pinanediol N-pyrazineformyl-L-leucyl-L-naphthylalanyl-L-leucineborate] registered a melting point of 140 to 142 °C. Moreover, half-maximal inhibition in data set [1] (IC50) was put at 0.37 ± 0.141 nM. Further, the IC50 in data set [2] was greater than 20 nM. In data set [3], this compound registered an IC50 of 3.91 ± 1.72 nM. Also, in data set [4], the Test results is on record as “++”, the inhibition at 0.05 µM was -19.9%, the inhibition at 0.5 µM came to 81.9% and the inhibition at 5 µM was found to be 88.6%. In data set [5], the Test results is reported as “++”, the inhibition at 0.05 µM is 38.3%, the inhibition at 0.5 µM worked out at 89.2% and the inhibition at 5 µM was determined as 83%. Moreover, in data set [6], the Test results was “++”, the inhibition at 0.05 µM is 3.18%, the inhibition at 0.5 µM turned out to be 83.9% and the inhibition at 5 µM was 92.3%. Further, in data set [7], the inhibition at 0.05 µM is 3.74%, the inhibition at 0.5 µM was 93.4%, the inhibition at 5 µM was 95.3% and the Test results is “++”.

As to `CC(C)C[C@H](NC(=O)[C@H](CC(C)C)NC(=O)[C@H](Cc1ccccc1)NC(=O)c1cnccn1)B1OC2CC3C[C@@H](C3(C)C)[C@]2(C)O1` (stereo partly drawn) [Compound 5k, Pinanediol N-pyrazineformyl-L-phenylalanyl-L-leucyl-L-leucine Borate], the melting point is 68 to 70 °C. In addition, in data set [1], half-maximal inhibition (IC50) required 0.287 ± 0.019 nM. Also, the IC50 in data set [2] was greater than 20 nM. Further, 2.73 ± 1.04 nM corresponded to half-maximal inhibition in data set [3] (IC50).

With `CC(C)C[C@H](NC(=O)[C@H](Cc1ccccc1)NC(=O)[C@H](Cc1ccccc1)NC(=O)c1cnccn1)B(O)O` [Compound 6a, N-pyrazineformyl-L-phenylalanyl-L-phenylalanyl-L-leucine Boronic Acid], the melting point lay within 112 to 114 °C. For the same compound, the midpoint of inhibition in data set [1], the IC50, lay at 0.546 ± 0.077 nM. For the same compound, the IC50 in data set [2] was greater than 20 nM. The compound also returned an IC50 in data set [3] of 10.9 ± 3.21 nM.

`CC(C)C[C@H](NC(=O)[C@H](Cc1ccccc1)NC(=O)[C@H](CC(C)C)NC(=O)c1cnccn1)B(O)O` [Compound 6e, N-pyrazineformyl-L-leucyl-L-phenylalanyl-L-leucine Boronic Acid]: the melting point is 113 to 116 °C. This compound also came in with an IC50 in data set [1] of 0.19 ± 0.017 nM. Also, the IC50 in data set [2] is greater than 20 nM. Also, 5.14 ± 2.17 nM corresponded to half-maximal inhibition in data set [3] (IC50).

With `CC(C)C[C@H](NC(=O)[C@H](CC(C)C)NC(=O)[C@H](Cc1ccccc1)NC(=O)c1cnccn1)B(O)O` [Compound 6k, N-pyrazineformyl-L-phenylalanyl-L-leucyl-L-leucine Boronic Acid], the melting point is 116 to 118 °C. Moreover, the IC50 in data set [1] is 0.173 ± 0.033 nM. In data set [2], the IC50 is greater than 20 nM. Also, half-maximal inhibition in data set [3] (IC50) was put at 5.66 ± 0.839 nM.

The values above are taken from US9421237B2, “Tripeptide boronic acid or boronic ester, preparative method and use thereof” (PEKING UNIVERSITY, priority 2009, dated 2016).
